# In US20210393597A1, “TARGETING THE TRANSCRIPTION FACTOR NF-KB WITH HARMINE” (DANA-FARBER CANCER INSTITUTE, INC., priority 2018, published 2021):
# “Also recorded” adds a separate entry of the source.
# Columns and labels:
# Format in all cases: cell-based
# [1] = system: NF-κB target genes (BIRC3, TNFAIP3, IL-8); test: qRT-PCR of NF-κB target gene expression in cancer cells
# Description: RNA was isolated using an RNeasy kit (Qiagen, Valencia, Calif.). cDNA was generated using the Taqman reverse transcription kit (Applied Biosystems, Foster City, Calif.). qRT-PCR was performed using Sybr Select or Power Sybr green master mix (Applied Biosystems). Samples were plated in triplicate and run on a 7300 or 7500 real time PCR machine (Applied Biosystems), using the indicated primers (Table 2). Target gene expression was normalized to actin, HPRT, or GAPDH. Data are expressed as mean fold change+/−SEM and are representative of at least two independent biological replicates.
# [2] = system: NF-κB; test: Dual luciferase reporter assay, OVCAR8 cells transfected with NF-κB dependent reporter; details: 24 hours
# Text: (§1) Cells were transfected with firefly luciferase plasmids for STAT3 (m67-Luc) or NF-KB-Luc (Stratagene, Santa Clara, Calif.) and a Renilla luciferase plasmid (Promega, Madison, Wis.). The NF-κB-responsive cell line was generated with an NF-κB-responsive reporter plasmid (catalogue no. 219078; Strategene, La Jolla, Calif., incorporated herein by reference). Cells were also co-transfected with a plasmid expressing Renilla luciferase under a constitutive promoter for normalization (pRL-TK plasmid; Promega; Madison, Wis., incorporated herein by reference). Dual luciferase assays were performed as described (Walker et al., 2007 Oncogene, 26: 224-233, incorporated herein by reference).
# [3] = system: p65; test: Single cell nuclear translocation analysis, HeLa p65-EGFP cells; details: 1 uM, imaged 18 hours
# Description: Hela cells stably expressing EGFP-tagged p65 were imaged for one hour prior to addition of either 1 uM Jak inhibitor 1 or 100 ng/mL TNF, and then for an additional 18 hours. Transmitted light and widefield epifluorescent images were captured at 10 min intervals using a BD Pathway 855 Bioimager with a 20× objective (0.75 NA; Olympus). Imaging was performed in an environmental chamber set to 37θC and 5% CO2. Five fields of view were analyzed per condition and the nuclear translocation of p65-EGFP was manually scored for each cell.
# [4] = system: INA6 cells; test: Apoptosis by PARP cleavage immunoblot, INA6 cells; details: 24 hours
# Description: (§2) Immunoblots were performed as described (Nelson et al., 2008 Blood, 112: 5095-5102). Nuclear and cytoplasmic fractions were isolated using the Nuclear Extract Kit (Active Motif North America, Carlsbad, Calif.). Antibodies were used recognizing phospho-tyrosine STAT3 (9131), PARP (9542), p65 (8242), RelB (4922) (Cell Signaling; Beverly, Mass.); actin (A-5316) and tubulin (T-5168) (Sigma); and STAT3 (sc-482), p50 (sc-7178), and calnexin (sc-11397) (Santa Cruz Biotechnology; Santa Cruz, Calif.).
# [5] = system: NF-κB; test: NF-κB-dependent luciferase reporter assay in NF-κB-Luc cells (Prestwick library screen and confirmation); details: drug 1 hour, then TNF stimulation
# Text: as §1
# (§3) To identify NF-κB inhibitors, the Prestwick Chemical Library, which contains 1120 bioactive compounds, was screened for activity against cells expressing NF-κB-dependent luciferase (Nelson et al., 2008 Blood, 112(13):5095-102). To confirm the specificity of identified compounds, NF-κB-Luc and STAT3-Luc cells were treated with the indicated doses of drug for one hour followed by stimulation with TNF or IL-6 respectively for 6 hours. Luciferase activity was assessed using the Bright-Glo Luciferase Assay system (Promega).
# [6] = system: p65; test: Chromatin immunoprecipitation at NF-κB binding sites of target genes, OVCAR8 cells; details: harmine pretreatment, TNF 30 minutes
# Description: SKBR3 cells stimulated with IL-6 for 30 minutes, OVCAR8 cells treated with harmine for 16 hours and then stimulated with TNF for 30 minutes, or U266 cells treated with Jak inhibitor 1 for 3 hours were analyzed by ChIP. Cross-linking was performed with 1% formaldehyde (0.37% for U266 cells) for 10 min at room temperature, followed by quenching of formaldehyde using 0.125 M glycine. ChIP was performed essentially as described (Nelson et al., 2004 J Biol Chem, 279(52):54724-30). Chromatin was sheared by sonication using a Qsonica Q700 sonicator with a microtip at approximately 75% amplitude. Anti-STAT3 antibody as described above, anti-p65 (Santa Cruz Biotechnology, sc-109), or anti-RNA polymerase II (Santa Cruz Biotechnology, sc-9001) were used. ChIP product was analyzed by qPCR using the following primers: RELB ([…] (SEQ ID NO: 34) and […] (SEQ ID NO: 35)), IL8 ([…] (SEQ ID NO: 36) and […] (SEQ ID NO: 37)), BIRC3 ([…] (SEQ ID NO: 38) and […] (SEQ ID NO: 39)), TNFAIP3 ([…] (SEQ ID NO: 40) and […] (SEQ ID NO: 41)). Data were normalized relative to input and a nonbinding region of the rhodopsin (RHO) gene (Walker et al., 2013 Mol Cell Biol, 33(15):2879-90).
# [7] = system: p65 and p50 NF-κB subunits; test: Cellular fractionation and immunoblot of NF-κB subunits upon TNF stimulation, OVCAR8 cells; details: 24 hours, then TNF
# Description: as §2
# [8] = system: U266 and OVCAR8 cells; test: Quantitation of viable cell number, U266 and OVCAR8 cells, harmine with additional STAT3 inhibitors; details: U266, 15 μM harmine, 3 μM TG101348; OVCAR8, 15 μM harmine, 5 μM pimozide; 72 hours
# Description: (§4) Cells were treated with the indicated drugs in 96 well plates for 48 to 72 hours. Viable cell number was assessed using ATP-dependent bioluminescence (Cell-TiterGlo; Promega). Data are expressed as average+/−SD of at least two replicates, and are representative of at least two separate experiments.
# [9] = system: STAT3; test: STAT3-dependent luciferase reporter counterscreen in STAT3-Luc cells; details: drug one hour, then IL-6 for 6 hours
# Description: as §3
# [10] = system: multiple myeloma cells; test: Quantitation of viable cell number (Cell-TiterGlo), multiple myeloma cells
# Description: as §4
# [11] = OVCAR8 cells, 24 hours, qRT-PCR
compound,measurement,setting,value
CCN1/C(=C/C(C)=O)Sc2ccc(O)cc21 [INDY],NF-κB target gene expression,[1]; [11],did not inhibit
CC(C)(C)c1nc2c3cc[nH]c(=O)c3c3cc(F)ccc3c2[nH]1 [Jak inhibitor 1],NF-κB reporter luciferase activity,[2],enhanced
same,p65 nuclear translocation,[3],not significantly altered
same,NF-κB target gene expression (IL-8),"[1]; A498 renal carcinoma cells, 24 hours",enhanced
same,NF-κB target gene expression,"[1]; INA-6 MM cells, 22-24 hours",enhanced
same,NF-κB target gene expression,"[1]; MDA-MB-468 breast cancer cells, 1 μM, 28 hours",enhanced
same,NF-κB target gene expression,[1]; [11],enhanced
COc1ccc2c(c1)[nH]c1c(C)nccc12 [harmine],"apoptosis measured by PARP cleavage, combination with Jak inhibitor 1",[4],enhanced apoptosis
same,NF-κB-dependent luciferase activity (transcriptional activity of NF-κB),[5],identified as an NF-κB inhibitor
same,NF-κB-dependent luciferase activity (transcriptional activity of NF-κB),[5]; listed as Harmine,inhibitor of NF-κB-dependent luciferase; also recorded: inhibited
same,RNA polymerase II binding at NF-κB target genes (ChIP),[6],reduced
same,p65 binding at NF-κB binding sites of target genes (ChIP),[6],reduced
same,induction of NF-κB target genes induced by Jak inhibitor 1,"[1]; OVCAR8 cells, 24 hours, harmine together with Jak inhibitor 1",completely suppressed
same,NF-κB target gene expression,[1]; [11],reduced; also recorded: inhibited
same,nuclear accumulation of p65 and p50,[7],no effect
same,cell killing in combination with additional STAT3 inhibitors (relative viable cell number),[8],enhanced killing
same,STAT3-dependent luciferase activity,[9],little effect; also recorded: not inhibiting
same,cell killing in combination with Jak inhibitor 1 (relative viable cell number),"[10]; INA6, 5 μM harmine, 0.25 μM Jak inhibitor 1, 72 hours",synergistic cell killing
same,viability of multiple myeloma cells (relative viable cell number),"[10]; cells containing activated NF-κB (INA6, U266, MA/11.S), 72 hours",inhibited the viability
O=C(N/N=C/c1ccc([N+](=O)[O-])o1)c1ccc(O)cc1 [nifuroxazide],NF-κB target gene expression,"[1]; INA-6 MM cells, 22-24 hours",upregulation
same,NF-κB target gene expression,[1]; [11],upregulation
